{"source": "ChEMBL document CHEMBL4507299", "about": "“Data for DCP probe PF-04554878” (2021)", "key": {"[1]": {"target": "Tyrosine-protein kinase JAK3 (Homo sapiens, UniProt P52333)", "assay": "JAK3 Invitrogen kinase activity assay"}, "[2]": {"target": "RAC-alpha serine/threonine-protein kinase (Homo sapiens) (UniProt P31749)", "sequence (P31749 whole entry)": "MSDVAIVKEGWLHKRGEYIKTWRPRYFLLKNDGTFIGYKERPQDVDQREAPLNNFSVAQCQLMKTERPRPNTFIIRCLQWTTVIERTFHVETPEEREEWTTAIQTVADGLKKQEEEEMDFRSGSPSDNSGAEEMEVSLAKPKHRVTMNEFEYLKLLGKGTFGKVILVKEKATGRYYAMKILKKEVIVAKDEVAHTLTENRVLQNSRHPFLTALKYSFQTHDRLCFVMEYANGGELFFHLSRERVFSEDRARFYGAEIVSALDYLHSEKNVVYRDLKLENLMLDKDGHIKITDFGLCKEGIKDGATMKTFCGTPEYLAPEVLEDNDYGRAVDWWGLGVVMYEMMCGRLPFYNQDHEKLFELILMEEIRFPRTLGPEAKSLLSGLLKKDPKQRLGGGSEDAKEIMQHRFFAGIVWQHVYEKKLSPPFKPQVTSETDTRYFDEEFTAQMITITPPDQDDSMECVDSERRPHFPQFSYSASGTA", "assay": "AKT1 Invitrogen kinase activity assay", "details": "Compound concentration 1.0 uM; call rule not given here"}, "Adenosine receptor A3": {"target": "Adenosine receptor A3 (Homo sapiens, UniProt P0DMS8)", "assay": "Cerep profiling assay (ADORA3)", "design": "compound concentration 10 uM"}, "[3]": {"target": "High affinity nerve growth factor receptor (Homo sapiens) (UniProt P04629)", "details": "Compound concentration 1.0 uM"}, "[4]": {"target": "T1, Serine/threonine-protein kinase TAO3 (Homo sapiens) (UniProt Q9H2K8)", "T1 sequence (whole entry)": "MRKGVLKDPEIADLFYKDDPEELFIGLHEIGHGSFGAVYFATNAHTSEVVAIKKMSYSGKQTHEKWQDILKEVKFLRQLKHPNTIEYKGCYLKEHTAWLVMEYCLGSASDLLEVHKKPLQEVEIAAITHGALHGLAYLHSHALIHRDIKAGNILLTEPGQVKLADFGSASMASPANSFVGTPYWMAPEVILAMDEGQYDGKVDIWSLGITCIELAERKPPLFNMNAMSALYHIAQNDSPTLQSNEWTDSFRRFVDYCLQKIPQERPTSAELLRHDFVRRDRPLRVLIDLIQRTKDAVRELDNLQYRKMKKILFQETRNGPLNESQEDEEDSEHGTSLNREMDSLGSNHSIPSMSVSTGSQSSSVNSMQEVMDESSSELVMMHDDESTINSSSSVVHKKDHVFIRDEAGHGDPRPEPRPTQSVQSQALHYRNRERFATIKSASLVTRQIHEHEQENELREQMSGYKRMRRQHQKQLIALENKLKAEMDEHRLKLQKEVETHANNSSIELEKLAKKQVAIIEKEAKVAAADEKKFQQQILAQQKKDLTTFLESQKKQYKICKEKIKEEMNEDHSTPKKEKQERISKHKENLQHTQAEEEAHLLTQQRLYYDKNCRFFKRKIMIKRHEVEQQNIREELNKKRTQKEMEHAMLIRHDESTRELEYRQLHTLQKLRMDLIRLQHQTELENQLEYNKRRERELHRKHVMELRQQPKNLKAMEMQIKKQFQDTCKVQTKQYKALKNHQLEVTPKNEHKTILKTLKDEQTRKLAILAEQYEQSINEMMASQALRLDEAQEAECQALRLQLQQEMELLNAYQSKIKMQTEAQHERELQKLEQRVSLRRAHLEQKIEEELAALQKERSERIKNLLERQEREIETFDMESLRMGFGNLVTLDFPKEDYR", "assay": "TAOK3 Invitrogen kinase activity assay", "details": "Compound concentration 1.0 uM"}, "[5]": {"target": "Mitogen-activated protein kinase kinase kinase kinase 4 (Homo sapiens) (UniProt O95819)", "sequence (O95819 2-1239 limits assumed)": "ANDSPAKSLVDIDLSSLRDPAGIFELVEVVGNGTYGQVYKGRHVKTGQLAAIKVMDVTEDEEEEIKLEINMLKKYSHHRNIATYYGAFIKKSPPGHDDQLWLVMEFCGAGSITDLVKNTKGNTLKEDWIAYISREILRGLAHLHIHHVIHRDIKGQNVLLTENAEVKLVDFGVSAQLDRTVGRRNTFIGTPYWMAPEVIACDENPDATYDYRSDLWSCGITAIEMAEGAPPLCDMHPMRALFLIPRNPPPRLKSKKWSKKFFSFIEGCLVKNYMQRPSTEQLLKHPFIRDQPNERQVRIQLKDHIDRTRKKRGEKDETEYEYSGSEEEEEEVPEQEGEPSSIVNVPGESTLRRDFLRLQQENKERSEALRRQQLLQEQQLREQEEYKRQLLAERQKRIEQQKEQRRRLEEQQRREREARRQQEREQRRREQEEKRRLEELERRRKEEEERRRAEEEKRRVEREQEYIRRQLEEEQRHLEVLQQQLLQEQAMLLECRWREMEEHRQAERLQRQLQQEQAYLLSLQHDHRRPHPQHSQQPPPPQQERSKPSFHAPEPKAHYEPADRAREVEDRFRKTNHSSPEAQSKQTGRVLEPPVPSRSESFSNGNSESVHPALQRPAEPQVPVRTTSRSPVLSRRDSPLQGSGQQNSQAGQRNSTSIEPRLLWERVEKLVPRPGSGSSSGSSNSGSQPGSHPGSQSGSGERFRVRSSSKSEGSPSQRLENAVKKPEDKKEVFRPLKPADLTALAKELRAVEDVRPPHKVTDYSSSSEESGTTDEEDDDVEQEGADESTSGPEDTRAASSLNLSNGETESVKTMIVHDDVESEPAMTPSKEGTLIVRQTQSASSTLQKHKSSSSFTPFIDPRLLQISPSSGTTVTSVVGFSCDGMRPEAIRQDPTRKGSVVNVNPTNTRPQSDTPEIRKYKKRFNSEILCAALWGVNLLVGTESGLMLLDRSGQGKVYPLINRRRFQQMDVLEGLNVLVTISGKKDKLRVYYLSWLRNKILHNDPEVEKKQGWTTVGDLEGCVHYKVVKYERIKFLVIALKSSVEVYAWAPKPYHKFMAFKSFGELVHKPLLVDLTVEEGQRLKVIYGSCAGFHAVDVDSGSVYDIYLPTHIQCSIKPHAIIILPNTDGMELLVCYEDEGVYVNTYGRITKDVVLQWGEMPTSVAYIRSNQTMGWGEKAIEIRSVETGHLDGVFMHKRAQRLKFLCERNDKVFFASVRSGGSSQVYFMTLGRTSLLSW", "assay": "MAP4K4 Invitrogen kinase activity assay", "details": "Compound concentration 1.0 uM"}, "[6]": {"target": "Rho-associated protein kinase 1 (Homo sapiens) (UniProt Q13464)", "assay": "ROCK1 Invitrogen kinase activity assay", "details": "Compound concentration 1.0 uM"}, "[7]": {"target": "Serine/threonine-protein kinase MARK1 (Homo sapiens, UniProt Q9P0L2)", "assay": "MARK1 Invitrogen kinase activity assay"}, "[8]": {"target": "Myosin light chain kinase 2, skeletal/cardiac muscle (Homo sapiens) (UniProt Q9H1R3)", "assay": "MYLK2 Invitrogen kinase activity assay", "details": "Compound concentration 1.0 uM"}, "[9]": {"target": "Vascular endothelial growth factor receptor 2 (Homo sapiens) (UniProt P35968)", "sequence (P35968 whole entry)": "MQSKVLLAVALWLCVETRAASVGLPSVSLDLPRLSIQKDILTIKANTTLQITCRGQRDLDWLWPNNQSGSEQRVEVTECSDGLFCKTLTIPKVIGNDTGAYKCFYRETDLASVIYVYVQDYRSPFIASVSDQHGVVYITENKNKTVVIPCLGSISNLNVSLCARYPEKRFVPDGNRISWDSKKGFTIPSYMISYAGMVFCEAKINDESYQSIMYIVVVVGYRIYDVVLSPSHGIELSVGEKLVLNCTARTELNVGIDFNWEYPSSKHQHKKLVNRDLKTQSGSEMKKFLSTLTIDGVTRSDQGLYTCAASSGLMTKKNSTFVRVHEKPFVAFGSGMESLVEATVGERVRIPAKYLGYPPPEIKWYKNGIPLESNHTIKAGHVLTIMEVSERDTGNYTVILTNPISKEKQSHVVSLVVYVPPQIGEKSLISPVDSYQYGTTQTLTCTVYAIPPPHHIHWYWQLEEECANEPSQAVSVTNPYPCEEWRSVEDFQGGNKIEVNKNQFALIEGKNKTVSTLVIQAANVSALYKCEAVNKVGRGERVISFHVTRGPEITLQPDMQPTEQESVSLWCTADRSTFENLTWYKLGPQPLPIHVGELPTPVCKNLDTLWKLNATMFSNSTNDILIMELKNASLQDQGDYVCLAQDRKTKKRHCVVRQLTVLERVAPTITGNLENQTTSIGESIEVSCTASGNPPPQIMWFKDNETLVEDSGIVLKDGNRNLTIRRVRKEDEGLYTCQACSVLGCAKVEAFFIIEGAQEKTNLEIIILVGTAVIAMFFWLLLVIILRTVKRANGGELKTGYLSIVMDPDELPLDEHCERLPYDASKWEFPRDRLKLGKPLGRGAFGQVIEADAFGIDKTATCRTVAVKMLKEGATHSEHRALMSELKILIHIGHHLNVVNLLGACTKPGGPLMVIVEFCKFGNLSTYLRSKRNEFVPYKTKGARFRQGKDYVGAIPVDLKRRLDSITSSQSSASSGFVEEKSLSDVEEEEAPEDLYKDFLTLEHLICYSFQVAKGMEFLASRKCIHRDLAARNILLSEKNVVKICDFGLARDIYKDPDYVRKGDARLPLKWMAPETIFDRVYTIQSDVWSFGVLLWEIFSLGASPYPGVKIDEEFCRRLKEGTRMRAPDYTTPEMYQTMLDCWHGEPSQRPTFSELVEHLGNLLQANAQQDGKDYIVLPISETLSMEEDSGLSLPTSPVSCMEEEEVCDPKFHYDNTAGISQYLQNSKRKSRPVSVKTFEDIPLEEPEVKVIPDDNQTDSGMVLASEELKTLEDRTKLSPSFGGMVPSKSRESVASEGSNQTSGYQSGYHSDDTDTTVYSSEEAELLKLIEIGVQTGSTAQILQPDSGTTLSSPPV", "assay": "VEGFR2/Flk1 Invitrogen kinase activity assay", "details": "Compound concentration 1.0 uM"}, "[10]": {"target": "D(3) dopamine receptor (Homo sapiens) (UniProt P35462)", "details": "Compound concentration 10.0 uM"}, "[11]": {"target": "Glycogen synthase kinase-3 beta (Homo sapiens, UniProt P49841)", "assay": "GSK3beta Invitrogen kinase activity assay"}, "[12]": {"target": "T2, Serine/threonine-protein kinase 3 (Homo sapiens) (UniProt Q13188)", "T2 sequence (whole entry)": "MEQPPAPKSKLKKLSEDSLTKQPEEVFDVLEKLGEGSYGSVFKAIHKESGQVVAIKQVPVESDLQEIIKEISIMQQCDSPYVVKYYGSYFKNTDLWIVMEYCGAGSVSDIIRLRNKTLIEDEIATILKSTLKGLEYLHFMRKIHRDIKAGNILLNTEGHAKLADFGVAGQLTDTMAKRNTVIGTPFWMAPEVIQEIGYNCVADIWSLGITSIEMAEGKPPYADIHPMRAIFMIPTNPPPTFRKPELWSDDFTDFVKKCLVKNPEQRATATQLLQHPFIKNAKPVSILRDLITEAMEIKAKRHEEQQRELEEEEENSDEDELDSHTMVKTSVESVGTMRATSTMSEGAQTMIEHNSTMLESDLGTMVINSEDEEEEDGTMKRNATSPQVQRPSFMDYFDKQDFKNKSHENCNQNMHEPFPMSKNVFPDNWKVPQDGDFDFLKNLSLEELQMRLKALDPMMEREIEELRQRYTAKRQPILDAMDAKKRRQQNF", "assay": "MST2 Invitrogen kinase activity assay", "details": "Compound concentration 1.0 uM"}, "[13]": {"target": "Dual specificity protein kinase CLK1 (Homo sapiens, UniProt P49759)", "assay": "CLK1 Invitrogen kinase activity assay"}, "[14]": {"target": "T3, Serine/threonine-protein kinase Chk1 (Homo sapiens) (UniProt O14757)", "T3 sequence (whole entry)": "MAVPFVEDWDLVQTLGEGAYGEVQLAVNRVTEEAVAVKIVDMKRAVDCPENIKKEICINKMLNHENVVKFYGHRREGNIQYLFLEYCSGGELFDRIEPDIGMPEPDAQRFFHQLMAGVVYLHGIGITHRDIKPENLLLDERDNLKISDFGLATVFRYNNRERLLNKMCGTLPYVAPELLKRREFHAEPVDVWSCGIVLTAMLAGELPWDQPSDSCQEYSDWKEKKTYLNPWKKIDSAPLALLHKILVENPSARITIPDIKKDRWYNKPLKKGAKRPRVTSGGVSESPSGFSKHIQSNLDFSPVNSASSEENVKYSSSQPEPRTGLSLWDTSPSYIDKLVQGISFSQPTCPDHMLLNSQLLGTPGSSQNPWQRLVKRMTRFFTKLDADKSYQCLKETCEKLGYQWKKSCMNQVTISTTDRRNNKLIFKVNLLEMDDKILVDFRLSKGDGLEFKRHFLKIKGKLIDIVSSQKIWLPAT", "assay": "CHK1 Invitrogen kinase activity assay", "details": "Compound concentration 1.0 uM"}, "[15]": {"target": "Vascular endothelial growth factor receptor 1 (Homo sapiens, UniProt P17948)", "sequence (P17948 whole entry)": "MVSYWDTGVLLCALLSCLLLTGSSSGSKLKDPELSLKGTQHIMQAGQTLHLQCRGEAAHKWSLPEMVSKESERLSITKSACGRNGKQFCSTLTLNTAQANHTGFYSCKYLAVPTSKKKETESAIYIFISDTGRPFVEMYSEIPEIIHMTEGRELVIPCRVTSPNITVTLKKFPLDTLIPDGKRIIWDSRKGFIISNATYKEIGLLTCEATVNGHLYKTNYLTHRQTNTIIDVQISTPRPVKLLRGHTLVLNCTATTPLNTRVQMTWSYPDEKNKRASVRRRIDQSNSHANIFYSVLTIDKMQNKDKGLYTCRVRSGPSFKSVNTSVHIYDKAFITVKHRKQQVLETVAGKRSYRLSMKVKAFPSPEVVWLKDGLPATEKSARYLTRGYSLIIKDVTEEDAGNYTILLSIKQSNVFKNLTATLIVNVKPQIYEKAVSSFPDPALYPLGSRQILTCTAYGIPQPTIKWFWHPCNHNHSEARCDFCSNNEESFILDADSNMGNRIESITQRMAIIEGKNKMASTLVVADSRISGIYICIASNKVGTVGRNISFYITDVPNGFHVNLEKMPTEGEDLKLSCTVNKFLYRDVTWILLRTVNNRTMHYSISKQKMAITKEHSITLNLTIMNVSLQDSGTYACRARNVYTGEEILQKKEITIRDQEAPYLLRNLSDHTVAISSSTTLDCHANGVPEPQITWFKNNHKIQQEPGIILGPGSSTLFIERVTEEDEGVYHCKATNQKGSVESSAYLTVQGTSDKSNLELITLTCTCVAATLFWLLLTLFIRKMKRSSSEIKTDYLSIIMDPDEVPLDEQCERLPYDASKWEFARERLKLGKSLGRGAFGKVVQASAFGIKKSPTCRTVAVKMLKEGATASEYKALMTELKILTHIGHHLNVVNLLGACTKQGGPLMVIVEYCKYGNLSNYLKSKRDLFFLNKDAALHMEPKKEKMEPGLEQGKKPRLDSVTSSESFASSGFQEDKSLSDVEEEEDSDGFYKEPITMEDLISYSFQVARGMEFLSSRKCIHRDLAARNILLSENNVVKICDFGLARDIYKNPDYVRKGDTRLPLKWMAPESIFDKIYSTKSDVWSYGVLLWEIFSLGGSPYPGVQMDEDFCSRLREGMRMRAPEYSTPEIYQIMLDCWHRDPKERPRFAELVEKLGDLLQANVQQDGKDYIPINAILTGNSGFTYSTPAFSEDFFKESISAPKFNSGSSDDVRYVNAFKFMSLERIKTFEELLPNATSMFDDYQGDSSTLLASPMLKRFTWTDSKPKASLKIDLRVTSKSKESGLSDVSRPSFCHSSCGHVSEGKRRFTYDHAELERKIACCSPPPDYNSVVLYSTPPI", "assay": "Cerep profiling assay (FLT1)", "design": "compound concentration 10 uM"}, "[16]": {"target": "Mitogen-activated protein kinase kinase kinase 9 (Homo sapiens, UniProt P80192)", "assay": "MAP3K9 Invitrogen kinase activity assay"}, "[17]": {"target": "5-hydroxytryptamine receptor 1E (Homo sapiens) (UniProt P28566)", "details": "Compound concentration 10.0 uM"}, "[18]": {"target": "MAP kinase-activated protein kinase 2 (Homo sapiens) (UniProt P49137)", "assay": "MAPKAPK2 Invitrogen kinase activity assay", "details": "Compound concentration 1.0 uM"}, "[19]": {"target": "Kappa-type opioid receptor (Homo sapiens) (UniProt P41145)", "sequence (P41145 whole entry)": "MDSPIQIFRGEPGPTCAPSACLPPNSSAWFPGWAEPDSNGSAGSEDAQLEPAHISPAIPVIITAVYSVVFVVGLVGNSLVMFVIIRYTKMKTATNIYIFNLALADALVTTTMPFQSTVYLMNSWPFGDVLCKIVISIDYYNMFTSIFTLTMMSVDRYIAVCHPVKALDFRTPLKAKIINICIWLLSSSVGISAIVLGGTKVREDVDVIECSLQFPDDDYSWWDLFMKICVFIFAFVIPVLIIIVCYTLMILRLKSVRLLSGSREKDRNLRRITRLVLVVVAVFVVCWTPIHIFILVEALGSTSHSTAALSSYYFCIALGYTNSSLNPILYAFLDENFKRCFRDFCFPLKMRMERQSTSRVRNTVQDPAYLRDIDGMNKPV", "details": "Compound concentration 10.0 uM"}, "Focal adhesion kinase 1": {"target": "Focal adhesion kinase 1 (Homo sapiens, UniProt Q05397)", "assay": "Binding assay (PTK2)"}}}
{"smiles": "CNC(=O)c1ccc(Nc2ncc(C(F)(F)F)c(NCc3nccnc3N(C)S(C)(=O)=O)n2)cc1", "note": "[DEFACTINIB]", "values": [{"measurement": "IC50", "setting": "[1]", "result": "> 1000", "unit": "nM"}, {"measurement": "inhibition", "setting": "[2]", "result": 4, "unit": "%"}, {"measurement": "Ki", "setting": "Adenosine receptor A3", "result": 27, "unit": "nM"}, {"measurement": "inhibition", "setting": "[3]", "result": 97, "unit": "%"}, {"measurement": "inhibition", "setting": "[4]", "result": 66, "unit": "%"}, {"measurement": "inhibition", "setting": "[5]", "result": 28, "unit": "%"}, {"measurement": "inhibition", "setting": "[6]", "result": 20, "unit": "%"}, {"measurement": "IC50", "setting": "[7]", "result": 448, "unit": "nM"}, {"measurement": "inhibition", "setting": "[7]; Compound concentration 1.0 uM", "result": 81, "unit": "%"}, {"measurement": "inhibition", "setting": "[8]", "result": 8, "unit": "%"}, {"measurement": "inhibition", "setting": "[9]", "result": 68, "unit": "%"}, {"measurement": "inhibition", "setting": "[10]", "result": 11.3, "unit": "%"}, {"measurement": "IC50", "setting": "[11]", "result": 416, "unit": "nM"}, {"measurement": "inhibition", "setting": "[11]; Compound concentration 1.0 uM", "result": 83, "unit": "%"}, {"measurement": "inhibition", "setting": "[12]", "result": 60, "unit": "%"}, {"measurement": "IC50", "setting": "[13]", "result": 250, "unit": "nM"}, {"measurement": "inhibition", "setting": "[13]; Compound concentration 1.0 uM", "result": 99, "unit": "%"}, {"measurement": "inhibition", "setting": "[14]", "result": 23, "unit": "%"}, {"measurement": "IC50", "setting": "[15]", "result": "2500 nM (not active)"}, {"measurement": "IC50", "setting": "[16]", "result": 75.3, "unit": "nM"}, {"measurement": "inhibition", "setting": "[16]; Compound concentration 1.0 uM", "result": 98, "unit": "%"}, {"measurement": "inhibition", "setting": "[17]", "result": 18.2, "unit": "%"}, {"measurement": "inhibition", "setting": "[18]", "result": 2, "unit": "%"}, {"measurement": "inhibition", "setting": "[19]", "result": 10.8, "unit": "%"}]}
{"smiles": "CN(c1ccnc(CNc2nc(Nc3ccc4c(c3)CC(=O)N4)ncc2C(F)(F)F)n1)S(C)(=O)=O", "note": "[PF-00911705]", "values": [{"measurement": "IC50", "setting": "Focal adhesion kinase 1", "result": "721 nM (not active)"}]}
